Numbered stars: 1 amine (or outer) side, 2 acyl side, 3 side chain; on linkers, the order of the positions; unused ones are H or OH. Bridge positions count the residues as written; N and C are the ends. Square brackets hold non-standard residues; d marks the D form. Peptide text beside a SMILES is read from it. Adda = CO[C@@H](Cc1ccccc1)[C@@H](C)/C=C(C)/C=C/[C@H](N[*:1])[C@H](C)C(=O)[*:2]; dAsp(3S-Me) = C[C@H](C(=O)[*:3])[C@@H](N[*:1])C(=O)[*:2]; d(γGlu) = O=C(O)[C@@H](CCC(=O)[*:2])N[*:1]; NMeDha = C=C(NC)C(=O)O
assay: Compound was tested for inhibition of protein phosphatase 2A (PP2A).

Q: With `C[C@H](NC(=O)[C@@H](CC(=O)O)NC(=O)[C@H](C)NC(=O)[C@@H](CCC(=O)O)NC(=O)CCN)C(=O)O` as the compound, how does the IC50 read?
A: 10 mM

Q: Which IC50 does the source give for `CC(C)C[C@@H]1NC(=O)[C@@H](C)NC(=O)[C@H](CC(=O)O)NC(=O)[C@@H](CCC(=O)O)NC(=O)[C@H](CS)NC(=O)[C@H](C)NC(=O)[C@@H](CC(=O)O)NC1=O` here?
A: 0.5 mM

Q: For `C=C1C(=O)N[C@H](C)C(=O)N[C@@H](CC(C)C)C(=O)N[C@@H](C(=O)O)[C@H](C)C(=O)N[C@@H](CCCNC(=N)N)C(=O)N[C@@H](/C=C/C(C)=C/[C@H](C)[C@H](Cc2ccccc2)OC)[C@H](C)C(=O)N[C@@H](C(=O)O)CCC(=O)N1C` [MICROCYSTIN-LR] (R[Adda][d(γGlu)][NMeDha][dA]L[dAsp(3S-Me)]-OH; lactam N-7), which IC50 is on record?
A: 0.2 mM

Q: Which IC50 does the source give for `CC(C)C[C@H]1NC(=O)[C@H](C)NC(=O)[C@@H](CC(=O)O)NC(=O)CCCNC(=O)[C@@H](CS)NC(=O)[C@@H](C)NC(=O)C[C@@H](C(=O)O)NC1=O` here?
A: 10 mM

assay: Percentage inhibition of murine protein phosphatase 2A at 1 mM.

Q: Which inhibition does the source give for `CC(C)C[C@H](NC(=O)[C@@H](C)N)C(=O)N[C@@H](CC(=O)N[C@@H](C)C(=O)NCCC(=O)N[C@H](CCC(=O)N[C@@H](C)C(=O)O)C(=O)O)C(=O)O` here?
A: 12%

Q: Which inhibition does the source give for `CC(C)C[C@H](NC(=O)[C@@H](C)NC(=O)[C@H](C)NC(=O)CC[C@@H](NC(=O)[C@@H](N)CS)C(=O)O)C(=O)N[C@H](CC(=O)N[C@@H](C)C(=O)O)C(=O)O` here?
A: 19%

Q: Which inhibition does the source give for `CC(C)C[C@H](NC(=O)[C@@H](C)N)C(=O)N[C@@H](CC(=O)N[C@@H](C)C(=O)N[C@@H](CC(=O)O)C(=O)N[C@H](CCC(=O)N[C@@H](C)C(=O)O)C(=O)O)C(=O)O` here?
A: 21%

Q: For `CC(C)C[C@H](NC(=O)[C@@H](C)N)C(=O)N[C@@H](CC(=O)N[C@@H](C)C(=O)NCCC(=O)N[C@H](CCC(=O)N[C@@H](CC(=O)O)C(N)=O)C(=O)O)C(=O)O`, which inhibition is on record?
A: 11%

Q: For `CC(C)C[C@H]1NC(=O)[C@H](C)NC(=O)[C@@H](C)NC(=O)CC[C@@H](C(=O)O)NC(=O)CCNC(=O)[C@@H](C)NC(=O)C[C@@H](C(=O)O)NC1=O`, which inhibition is on record?
A: 3%

Q: For `CC(C)C[C@H](NC(=O)[C@@H](C)N)C(=O)N[C@@H](CC(=O)N[C@@H](C)C(=O)N[C@@H](C)C(=O)N[C@@H](CCC(=O)N[C@@H](C)C(=O)O)C(=O)O)C(=O)O`, which inhibition is on record?
A: 22%

Q: With `C[C@H](NC(=O)[C@@H](CC(=O)O)NC(=O)[C@H](C)NC(=O)[C@@H](CCC(=O)O)NC(=O)CCN)C(=O)O` as the compound, how does the inhibition read?
A: 30%

Q: With `CC(C)C[C@H](NC(=O)[C@@H](C)N)C(=O)N[C@H](CC(=O)O)C(=O)N[C@@H](C)C(=O)N[C@@H](CS)C(=O)N[C@H](CCC(=O)O)C(=O)N[C@@H](CC(=O)O)C(N)=O` as the compound, how does the inhibition read?
A: 17%

Q: Which inhibition does the source give for `CC(C)C[C@@H]1NC(=O)[C@@H](C)NC(=O)[C@H](CC(=O)O)NC(=O)[C@@H](CCC(=O)O)NC(=O)[C@H](CS)NC(=O)[C@H](C)NC(=O)[C@@H](CC(=O)O)NC1=O` here?
A: 86%

Q: For `CC(C)C[C@H](NC(=O)[C@@H](C)N)C(=O)N[C@@H](CC(=O)N[C@@H](C)C(=O)N[C@@H](CS)C(=O)N[C@H](CCC(=O)N[C@@H](CC(=O)O)C(N)=O)C(=O)O)C(=O)O`, which inhibition is on record?
A: 18%

Q: For `C[C@H](NC(=O)C[C@H](NC(=O)[C@H](C)NC(=O)CC[C@@H](NC(=O)CCN)C(=O)O)C(=O)O)C(=O)O`, which inhibition is on record?
A: 19%

Q: For `CC(C)C[C@H](NC(=O)[C@@H](C)N)C(=O)N[C@H](CC(=O)O)C(=O)N[C@@H](C)C(=O)N[C@@H](CC(=O)O)C(=O)N[C@H](CCC(=O)O)C(=O)N[C@@H](C)C(=O)O`, which inhibition is on record?
A: 11%

Q: Which inhibition does the source give for `CC(C)C[C@H](NC(=O)[C@@H](C)NC(=O)[C@H](C)NC(=O)CC[C@@H](NC(=O)CCN)C(=O)O)C(=O)N[C@H](CC(=O)N[C@@H](C)C(=O)O)C(=O)O` here?
A: 15%

Q: For `CC(C)C[C@H](NC(=O)[C@@H](C)NC(=O)[C@H](C)NC(=O)[C@@H](CCC(=O)O)NC(=O)CCN)C(=O)N[C@H](CC(=O)O)C(=O)N[C@@H](C)C(=O)O`, which inhibition is on record?
A: 16%

Q: Which inhibition does the source give for `CC(C)C[C@H](NC(=O)[C@@H](C)NC(=O)[C@H](C)NC(=O)[C@@H](CCC(=O)O)NC(=O)[C@@H](N)CS)C(=O)N[C@H](CC(=O)O)C(=O)N[C@@H](C)C(=O)O` here?
A: 22%

Q: With `CC(C)C[C@H](NC(=O)[C@@H](C)N)C(=O)NCCC(=O)N[C@@H](C)C(=O)N[C@H](CC(=O)O)C(=O)N[C@H](CCC(=O)O)C(=O)N[C@@H](C)C(=O)O` as the compound, how does the inhibition read?
A: 14%

Q: Which inhibition does the source give for `CC(C)C[C@H]1NC(=O)[C@H](C)NC(=O)[C@@H](CC(=O)O)NC(=O)CCCNC(=O)[C@@H](CS)NC(=O)[C@@H](C)NC(=O)C[C@@H](C(=O)O)NC1=O` here?
A: 45%

Q: For `CC(C)C[C@H](NC(=O)[C@@H](C)N)C(=O)NCCC(=O)N[C@@H](C)C(=O)N[C@@H](CC(=O)O)C(=O)N[C@@H](CCC(=O)N[C@@H](C)C(=O)O)C(=O)O`, which inhibition is on record?
A: 12%

Q: Which inhibition does the source give for `CC(C)C[C@H]1NC(=O)[C@H](C)NC(=O)[C@@H](CC(=O)O)NC(=O)CCCNC(=O)CCNC(=O)[C@@H](C)NC(=O)C[C@@H](C(=O)O)NC1=O` here?
A: 42%

Q: Which inhibition does the source give for `CC(C)C[C@H]1NC(=O)[C@H](C)NC(=O)[C@@H](CC(=O)O)NC(=O)[C@H](CCC(=O)O)NC(=O)CCNC(=O)[C@@H](C)NC(=O)[C@H](CC(=O)O)NC1=O` here?
A: 21%

Q: For `CC(C)C[C@H](NC(=O)[C@@H](C)N)C(=O)N[C@H](CC(=O)O)C(=O)N[C@@H](C)C(=O)NCCC(=O)N[C@H](CCC(=O)O)C(=O)N[C@@H](CC(=O)O)C(N)=O`, which inhibition is on record?
A: 1%

From ChEMBL document CHEMBL1129159, “Inhibition of protein phosphatase 2A by cyclic peptides modelled on the microcystin ring” (Bioorg Med Chem Lett, 1996)
